According to patent US20240374610A1, “METHOD AND PHARMACEUTICAL COMPOSITION FOR TREATING OR ALLEVIATING GLIOMAS IN A SUBJECT” (Zhejiang University, priority 2023, published 2024):

How the values were obtained:
[1] = test system: CKO model-derived glioma cell lines 1483 and 1877; test: Proliferation rate of CKO model-derived glioma cell lines (EdU incorporation assay); type: cell-based, mouse; conditions: for proliferation of tumor OPCs: 200 μM glutamate, 200 μM GABA or 15 mM KCl vs control, cell lines 1483 and 1877
Description: Cell lines were authenticated by tdTomato marker when histology analyzing. All cell lines tested negative for mycoplasma contamination.

[2] = test system: glioma cells from the CKO model; test: RNA-Seq of glioma cells co-cultured with primary OB neurons and stimulated by IGF-1; type: cell-based, mouse; conditions: co-cultures stimulated by 20 ng/mL IGF-1
Method: OBs were dissected from P2-3 mouse pups and digested in 10 mL papain solution (1×EBSS (Sigma, E7510), 0.5 mM EDTA, 10 mM HEPES, 26 mM NaHCO3, 22.5 mM D(+)-glucose, 0.16 mg/mL L-cycteine, 20 units/mL papain (Worthington Biochem, LS003126), 250 μg/mL DNase I (Sigma, DN-25) in dd-water) for 30 min at 37° C. Papain solution was discarded and the tissue was triturated with 2 mL Diluted Trypsin Inhibitor Buffer (1×EBSS (Sigma, E7510), 10 mM HEPES, 26 mM NaHCO3, 1× ovomucoid (Worthington Biochem, LS003086), 250 μg/mL DNase I (Sigma, DN-25), 1 mg/mL BSA (equitech-bio, BAH62) in dd-water) by 1 mL pipette and was allowed to settle for 2 min. 1 mL upper cell suspension was carefully collected and additional 1 mL Diluted Trypsin Inhibitor Buffer was add to the tissue. The process was repeated until all Diluted Trypsin Inhibitor Buffer was consumed. […]
For sequencing of tumor cells from co-cultures, raw data was filtered by removing adapter with Cutadapt (Version 3.4) and quality control (not lower than 25). Clean reads were aligned to the reference genome Mus_musculus.GRCm39.dna.primary_assembly.fa (39.103) from Ensembl by STAR (Version 2.7.9a). Read counts were calculated by featureCounts (Version 2.0.1). The feature was selected as Exon, and only reads with mapping quality score greater than 25 were retained. […]

blood-brain-barrier = test: Evans Blue dye assay of blood-brain barrier integrity; type: in vivo, mouse; conditions: WT mice, clozapine by drinking water or i.p.
Method: The protocol was adapted from Ludewig et al.^42 with some modifications. Mice were administrated with 200 μL Evans Blue (2%) by i.p injection. After six hours of EB injection, the mice were anaesthetized and then perfused with cold PBS. 100 mg tissue for each sample from multiple organs (as indicated in the FIG. 9g) was collected in 500 μL PBS and ground into tissue homogenate. 500 μL formamide was then add to the homogenate before being incubated in the 55° C. for 24 hours. After centrifugation, supernatants were collected for optical density detecting at 620 nm.

peripheral immune cells = test: Immune cells in peripheral blood under clozapine (FACS); type: in vivo, mouse; conditions: clozapine by oral or i.p. administration, three weeks
Method: Blood was collected by intracardial puncture from anaesthetized mice into heparinized 1 ml syringes. Heparin was used in a range of 30 units/ml. Red blood cells were lysed in ACK lysing buffer (Gibco, A10492) at room temperature for 5 min. Cell suspensions were spun down at 300 g for 5 min. The cell pellet was then washed with Hank's balanced salt solution (HBSS) and spun for 5 min at 300 g. The cells in the pellet (1-2×10^5 cells) were used in fluorescence assays. Antibodies used for flow cytometry were directed against the following mouse antigens: Pacific Blue anti-mouse CD45(30-F11), PE anti-mouse Ly-6G(1A8), PerCP/Cyanine5.5 anti-mouse CD11c, FITC anti-mouse CD19(1D3), APC anti-mouse CD3(17A2), APC/Cyanine7 anti-mouse/human CD11b(M1/70) from Biolegend. Dilution: 1: 200.

local resident microglia = test: Granulocytes and macrophage/microglia in the brain under clozapine (CD15, Iba1, CD68 staining); type: in vivo, mouse
Method: All mouse frozen tissues were cryo-sectioned into 20 μm thickness. For routine staining, the slides were fixed in ice-cold 2% PFA for 15 minutes. After washed in 1×PBS (3 times, 10 minutes each), the slides were briefly rinsed with 1×PBT (0.3% Triton X-100 in 1×PBS) and then incubated with the blocking solution (5% normal donkey serum, 0.3% Triton X-100, 0.1% NaN3 in 1×PBS) for 20 minutes. The slides mounted with primary antibodies were then incubated in the wet box at 4° C. overnight. Next day, the slides were washed in 1×PBT (4 times, 10 minutes each) before incubated with secondary antibodies (diluted in 1×PBT) in foil-wrapped wet box at 4° C. overnight. The third day, the slides were washed in 1×PBT (4 times, 10 minutes each) and DAPI solution (25 ng/ml in 1×PBS, 20 minutes). After washing with 1×PBS for 5 minutes, the slides were mounted with the mounting solution (65% glycerol in 1×PBS) and covered with coverslips.

O=[N+]([O-])c1cc2nc(O)c(O)nc2cc1[N+](=O)[O-] [DQNX]
IGF1-promoted proliferation of tumor OPCs ([1]; 20 ng/mL IGF-1 plus 10 μM AMPA-receptor antagonist vs IGF-1 alone): did not affect

N[C@@H](CCC(=O)O)C(=O)O [Glutamate]
proliferation of tumor OPCs [1]: did not affect

NCCCC(=O)O [GABA]
proliferation of tumor OPCs [1]: did not affect

insulin-like growth factor-1 [IGF-1]
proliferation of tumor OPCs in vitro ([1]; 20 ng/mL IGF-1, glioma cell lines 1483 and 1877): significantly stimulated the proliferation | expression of RTK downstream genes such as Egr3/4 and Fosl2 [2]: significant upregulation | expression of neurotransmitter receptor genes including AMPARs in tumor OPCs [2]: did not affect the expression

CN1CCN(C2=Nc3cc(Cl)ccc3Nc3ccccc32)CC1 [clozapine]
integrity of the blood-brain-barrier (blood-brain-barrier): did not affect the integrity | number of granulocytes in peripheral blood (peripheral immune cells): slightly but significantly reduced | number of macrophages in peripheral blood (peripheral immune cells): increased | number or activation of local resident microglia (local resident microglia; CKO model regardless of tumor stage, Iba1+ and CD68+ Iba1+): not affected | granulocytes (CD15) in the brain parenchyma (local resident microglia; WT, Omp-hM3Dq, Omp-hM4Di and CKO tumor mice with clozapine treatment): barely any granulocytes could be found

[Cl-].[K+] [potassium chloride]
proliferation of tumor OPCs [1]: did not affect
